Source: PMC3508466 (Chemistry & biology, 2012)
Several values for one entry are separate records, joined by “and”; a condition that tells them apart may be missing. Equal values may be shown once. Entries after “also recorded” stand apart in the source; their conditions may differ. Read-outs that look alike come from different tables or passages of the source.

Experiments:
ClC-ec1 [1] = target: T1, ClC-ec1 (Escherichia coli, UniProt P37019); assay: Cl− efflux assay, ClC-ec1 reconstituted into liposomes; type: biochemical, E. coli; settings: for inhibition of ClC-ec1 by parent compounds: concentrations up to 1 mM
T1 sequence (P37019 whole entry): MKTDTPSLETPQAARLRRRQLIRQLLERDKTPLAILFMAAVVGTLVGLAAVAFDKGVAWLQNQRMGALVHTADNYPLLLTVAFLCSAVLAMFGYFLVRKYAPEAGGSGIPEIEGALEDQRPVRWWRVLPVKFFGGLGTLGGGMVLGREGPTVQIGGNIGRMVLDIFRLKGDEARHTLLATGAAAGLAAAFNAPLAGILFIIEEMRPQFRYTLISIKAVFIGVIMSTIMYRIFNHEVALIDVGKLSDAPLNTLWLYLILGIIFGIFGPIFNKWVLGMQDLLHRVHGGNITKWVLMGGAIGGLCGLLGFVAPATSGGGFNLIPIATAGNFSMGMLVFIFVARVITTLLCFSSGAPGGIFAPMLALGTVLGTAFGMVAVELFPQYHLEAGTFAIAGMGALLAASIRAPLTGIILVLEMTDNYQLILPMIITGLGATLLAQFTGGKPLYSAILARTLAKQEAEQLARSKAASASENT

[2] = tested on: ClC-ec1 R17, R18, and R19 mutant; assay: Cl− efflux assay, ClC-ec1 with R17, R18 and R19 mutated; type: biochemical, E. coli
ClC-ec1 [3] = target: T1, ClC-ec1; settings: for Hill coefficient n / Imax (maximal inhibition): cis chamber
ClC-ec1 K169A mutant = ClC-ec1 K169A mutant (Escherichia coli, UniProt P37019, K169A); settings: E. coli polar lipids
Chain of ClC-ec1 K169A mutant (P37019 whole entry K169A): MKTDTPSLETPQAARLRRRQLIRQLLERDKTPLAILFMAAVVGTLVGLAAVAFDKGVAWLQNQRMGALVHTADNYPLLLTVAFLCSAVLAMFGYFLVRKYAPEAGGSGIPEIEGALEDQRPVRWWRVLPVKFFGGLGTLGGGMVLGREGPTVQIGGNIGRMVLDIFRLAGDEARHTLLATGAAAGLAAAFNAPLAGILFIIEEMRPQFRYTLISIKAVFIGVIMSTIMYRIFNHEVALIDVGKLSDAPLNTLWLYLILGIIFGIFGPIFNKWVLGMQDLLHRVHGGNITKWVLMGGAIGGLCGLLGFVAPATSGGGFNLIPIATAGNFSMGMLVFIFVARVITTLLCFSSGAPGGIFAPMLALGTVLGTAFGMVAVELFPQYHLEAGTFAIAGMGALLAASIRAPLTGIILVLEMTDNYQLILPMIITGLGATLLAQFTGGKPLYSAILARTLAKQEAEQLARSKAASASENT

human ClC-1 = human ClC-1 (Homo sapiens, UniProt P35523); assay: Inside-out patches excised from Xenopus oocytes expressing human ClC-1; type: cell-based; settings: 30 μM
Chain of human ClC-1 (P35523 whole entry): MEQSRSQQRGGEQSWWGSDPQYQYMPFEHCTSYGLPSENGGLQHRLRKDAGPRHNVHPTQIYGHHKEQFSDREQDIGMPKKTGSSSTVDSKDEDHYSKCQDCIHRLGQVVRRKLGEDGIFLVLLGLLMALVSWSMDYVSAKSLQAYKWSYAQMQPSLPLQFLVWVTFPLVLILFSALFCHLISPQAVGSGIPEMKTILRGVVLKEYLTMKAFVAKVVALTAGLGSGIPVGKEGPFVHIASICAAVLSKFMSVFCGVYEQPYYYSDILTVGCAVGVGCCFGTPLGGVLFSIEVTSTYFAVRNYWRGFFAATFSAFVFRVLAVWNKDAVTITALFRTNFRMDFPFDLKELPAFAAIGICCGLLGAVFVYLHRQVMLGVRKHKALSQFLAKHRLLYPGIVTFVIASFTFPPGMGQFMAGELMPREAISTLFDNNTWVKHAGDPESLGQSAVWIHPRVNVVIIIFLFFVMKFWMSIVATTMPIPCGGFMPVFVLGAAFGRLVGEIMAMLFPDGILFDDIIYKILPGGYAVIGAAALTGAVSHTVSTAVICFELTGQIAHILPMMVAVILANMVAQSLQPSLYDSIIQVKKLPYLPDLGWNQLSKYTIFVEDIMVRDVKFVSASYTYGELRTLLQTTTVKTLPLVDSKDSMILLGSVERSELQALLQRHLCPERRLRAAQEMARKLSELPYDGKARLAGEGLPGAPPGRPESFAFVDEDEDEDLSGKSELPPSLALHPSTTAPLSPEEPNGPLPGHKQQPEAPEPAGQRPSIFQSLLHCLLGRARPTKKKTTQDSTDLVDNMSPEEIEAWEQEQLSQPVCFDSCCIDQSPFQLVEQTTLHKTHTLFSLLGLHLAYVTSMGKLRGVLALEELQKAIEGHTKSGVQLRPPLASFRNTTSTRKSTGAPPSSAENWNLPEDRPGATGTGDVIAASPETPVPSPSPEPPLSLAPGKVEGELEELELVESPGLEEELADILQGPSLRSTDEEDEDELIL

ClC-ec1 [4] = target: T1, ClC-ec1
[5] = tested on: ClC-ec1 R160, R167 and R174 mutant; assay: Cl− efflux assay, ClC-ec1 with R160, R167 and R174 mutated; type: biochemical; settings: E. coli polar lipids
[6] = tested on: ClC-ec1 R23 and K30 mutant; assay: Cl− efflux assay, ClC-ec1 with R23 and K30 mutated; type: biochemical, E. coli
[7] = tested on: ClC-ec1 intracellular vestibule triple mutant; type: biochemical, E. coli
[8] = target: ClC-ec1 R28A/K216A mutant (Escherichia coli, UniProt P37019, K216A/R28A); settings: E. coli polar lipids
Chain of ClC-ec1 R28A/K216A mutant (P37019 whole entry R28A/K216A): as the sequence (P37019 whole entry K169A) above, with R28A, A169K, K216A counted along it

SMILES: O=C(O)c1ccccc1Nc1cccc(C(F)(F)F)c1 [flufenamic acid]
- inhibition of ClC-ec1 by known CLC channel inhibitors (lead panel) (ClC-ec1 [1]): None of these compounds inhibited ClC-ec1

SMILES: O=C(O)c1cccnc1Nc1cccc(C(F)(F)F)c1 [niflumic acid]
- inhibition of ClC-ec1 by known CLC channel inhibitors (lead panel) (ClC-ec1 [1]): None of these compounds inhibited ClC-ec1

SMILES: O=C(O)c1cc([N+](=O)[O-])ccc1NCCCc1ccccc1 [NPPB, 5-nitro-2-(3-phenylpropylamino)benzoic acid]
- inhibition of ClC-ec1 by known CLC channel inhibitors (lead panel) (ClC-ec1 [1]): None of these compounds inhibited ClC-ec1

SMILES: CCCCCCCC(=O)Nc1ccc(C=Cc2ccc(NC(=O)CCCCCCC)cc2S(=O)(=O)O)c(S(=O)(=O)O)c1 [OADS, 4,4′-octanamidostilbene-2,2′-disulfonate]
- effect of mutation on OADS inhibition [2]: had no effect on OADS inhibition
- effect of OADS applied to the opposite chamber from DIDS (ClC-ec1 [3]): significant additional inhibition
- time to complete reversal of inhibition after perfusion with OADS-free solution (ClC-ec1 [3]; 3.3 μM OADS in trans chamber, 4 min is minimum for full perfusion): 4 to 10 min
- effect of OADS added after DIDS to the same (cis) chamber (ClC-ec1 [3]; 1 mM DIDS then 15 μM OADS): no additional inhibition; also recorded: has no effect
- Hill coefficient n (ClC-ec1 [3]; +100 mV): 3.9
- Imax (maximal inhibition) (ClC-ec1 [3]; +100 mV): 34%
- maximal inhibition (ClC-ec1 [3]; OADS added to cis chamber, voltage not specified): ~ 40%
- Hill coefficient n (ClC-ec1 [3]; −100 mV): 6.1
- Imax (maximal inhibition) (ClC-ec1 [3]; −100 mV): 40%
- Ki (ClC-ec1 K169A mutant): 68 µM
- change in sensitivity to OADS versus wild type (ClC-ec1 K169A mutant): two-fold decrease in sensitivity
- inhibition of ClC-ec1 (ClC-ec1 [1]; 30 μM, PE/PG liposomes): 84%
- Ki (ClC-ec1 [1]; PE/CLN liposomes): 32 µM
- Hill coefficient n (ClC-ec1 [1]; PE/PG liposomes): 1.9
- Ki (ClC-ec1 [1]; PE/PG liposomes): 7.3 µM
- Hill coefficient n (ClC-ec1 [1]; liposomes from E. coli polar lipids): 1.9
- Ki (ClC-ec1 [1]; read-out: Ki (apparent affinity, concentration for half-maximal inhibition), liposomes from E. coli polar lipids, pH 4.0): ~30 µM and 29 µM
- increase in potency compared to either parent compound (ClC-ec1 [1]; versus octanoic acid and DADS): over 100 fold
- inhibition of ClC-1 (human ClC-1): 20%
- effect on Cl− binding to ClC-ec1 (ClC-ec1 [4]): no significant effect on Cl^− binding to ClC-ec1
- influence of mutation on OADS inhibition [5]: had no influence
- effect of mutation on OADS inhibition [6]: had no effect on OADS inhibition
- effect of mutation on inhibition by OADS [7]: has no effect on inhibition by OADS

SMILES: O=S(=O)(O)c1cc(N=C=S)ccc1C=Cc1ccc(N=C=S)cc1S(=O)(=O)O [DIDS, 4,4′-diisothiocyano-2,2′-stilbenedisulfonic acid, reference compound]
- effect of DIDS added after OADS to the same chamber (ClC-ec1 [3]): has no effect
- effect of DIDS applied to the opposite chamber from OADS (ClC-ec1 [3]): significant additional inhibition

SMILES: Nc1ccc(C=Cc2ccc(N)cc2S(=O)(=O)O)c(S(=O)(=O)O)c1 [DADS, 4,4′-diaminostilbene-2,2′-disulfonate]
- inhibition of ClC-ec1 by known CLC channel inhibitors (lead panel) (ClC-ec1 [1]): None of these compounds inhibited ClC-ec1
- inhibition of ClC-ec1 by parent compounds (ClC-ec1 [1]): neither parent compound detectably inhibited ClC-ec1

SMILES: O=C(O)c1c2ccccc2cc2ccccc12 [9-anthracene carboxylate]
- inhibition of ClC-ec1 by known CLC channel inhibitors (lead panel) (ClC-ec1 [1]): None of these compounds inhibited ClC-ec1

SMILES: CCCCCCCC(=O)Nc1ccc(/C=C\c2ccc(NC(=O)CCCCCCC)cc2S(=O)(=O)O)c(S(=O)(=O)O)c1 [cis-OADS]
- potency on R28A/K216A relative to trans-OADS [8]: just as potently as trans-OADS
- ClC-1 inhibition, cis versus trans isomer (human ClC-1): equally inhibited by both the cis and trans-OADS isomers

SMILES: O=C(O)C(Cc1ccc(Cl)cc1)Oc1ccc(Cl)cc1 (stereo not drawn) [2-(p-chlorophenoxy)-3-(4-chlorophenyl)propionic acid]
- inhibition of ClC-ec1 by known CLC channel inhibitors (lead panel) (ClC-ec1 [1]): None of these compounds inhibited ClC-ec1

SMILES: CCCCCCCC(=O)O [octanoic acid]
- inhibition of ClC-ec1 by known CLC channel inhibitors (lead panel) (ClC-ec1 [1]): None of these compounds inhibited ClC-ec1
- inhibition of ClC-ec1 by parent compounds (ClC-ec1 [1]): neither parent compound detectably inhibited ClC-ec1
